Experimental findings from the supplement of paper PMC10307832 are described below.

Experiment in all cases: relative viability (nuclei count vs DMSO), 5 days (fraction); higher = more cells survive
Compound in assay [1]: N=C1NC(=O)/C(=C/c2ccc(O)cc2)S1 [Mirin] + Cc1nc(Nc2ncc(C(=O)Nc3c(C)cccc3Cl)s2)cc(N2CCN(CCO)CC2)n1 [Dasatinib] (partner 0.075 µM)
In short, it runs like this:
(§1)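 Relative viability divides the nuclei count in treated wells by that in vehicle wells. Lung cancer cell lines were seeded in 1536-well plates, dosed by pin tool the next day, and fixed and stained after 5 days in one step with final 0.05% Triton X-100, 1% formaldehyde and 1 ug/ml Hoechst. Dosing was a single drug or a fixed anchor-drug dose plus five library-drug doses (not always all listed) in √10 steps, and values are medians of duplicate plates imaged at 4×.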

Compound in assay [2]: N=C1NC(=O)/C(=C/c2ccc(O)cc2)S1 [Mirin] + CC1(C)CCC(c2ccc(Cl)cc2)=C(CN2CCN(c3ccc(C(=O)NS(=O)(=O)c4ccc(N[C@H](CCN5CCOCC5)CSc5ccccc5)c(S(=O)(=O)C(F)(F)F)c4)cc3)CC2)C1 [Navitoclax] (partner 0.5 µM)
The method in brief: as §1

Compound in assay [3]: N=C1NC(=O)/C(=C/c2ccc(O)cc2)S1 [Mirin] + Nc1nc2[nH]cc(CCc3ccc(C(=O)N[C@@H](CCC(=O)O)C(=O)O)cc3)c2c(=O)[nH]1 [Pemetrexed] (partner 0.2 µM)
In short, it runs like this: as §1

Compound in assay [4]: N=C1NC(=O)/C(=C/c2ccc(O)cc2)S1 [Mirin] + COc1cc2c(Oc3ccc(NC(=O)C4(C(=O)Nc5ccc(F)cc5)CC4)cc3F)ccnc2cc1OCCCN1CCOCC1 [Foretinib] (partner 0.25 µM)
The method in brief: as §1

On to PC-3 [JPC-3], for which the relative viability in assay [1] (first compound 0.25 µM) is 1.03; in assay [1] (first compound 0.7906 µM), 0.979; in assay [1] (first compound 2.5 µM), 1.04; in assay [1] (first compound 7.906 µM), 0.981; in assay [1] (first compound 25 µM), 1.08; in assay [2] (first compound 0.25 µM) it was 0.826. Further, the relative viability in assay [2] (first compound 0.7906 µM) came out at 0.813; in assay [2] (first compound 2.5 µM) it was 0.812; in assay [2] (first compound 7.906 µM), 0.869; in assay [2] (first compound 25 µM), 0.904; in assay [3] (first compound 0.25 µM), 1.11; in assay [3] (first compound 0.7906 µM), 1.03. Further, the relative viability was determined as 1.22 in assay [3] (first compound 2.5 µM); 1.2 in assay [3] (first compound 7.906 µM); 1.29 in assay [3] (first compound 25 µM); 1.05 in assay [4] (first compound 0.25 µM); 1.13 in assay [4] (first compound 0.7906 µM); 1.02 in assay [4] (first compound 2.5 µM). The relative viability in assay [4] (first compound 7.906 µM) stood at 1.14; in assay [4] (first compound 25 µM), 1.3.
Take PC-14: the relative viability worked out at 0.243 in assay [1] (first compound 0.25 µM); 0.248 in assay [1] (first compound 0.7906 µM); 0.26 in assay [1] (first compound 2.5 µM); 0.295 in assay [1] (first compound 25 µM); 1.04 in assay [2] (first compound 0.25 µM); 1.04 in assay [2] (first compound 0.7906 µM). Further, the relative viability in assay [2] (first compound 2.5 µM) worked out at 1.08; in assay [2] (first compound 7.906 µM), 1.03; in assay [2] (first compound 25 µM), 1.17; in assay [3] (first compound 0.25 µM) it was 0.127; in assay [3] (first compound 0.7906 µM), 0.14; in assay [3] (first compound 2.5 µM), 0.143. In addition, the relative viability came out at 0.134 in assay [3] (first compound 7.906 µM); 0.171 in assay [3] (first compound 25 µM); 0.968 in assay [4] (first compound 0.25 µM); 0.833 in assay [4] (first compound 0.7906 µM); 1.09 in assay [4] (first compound 2.5 µM); 0.929 in assay [4] (first compound 7.906 µM). Moreover, in assay [4] (first compound 25 µM), the relative viability is 1.02.
On to RERF-LC-KJ, for which the relative viability in assay [1] (first compound 0.25 µM) worked out at 0.958; in assay [1] (first compound 0.7906 µM), 0.831; in assay [1] (first compound 2.5 µM) it was 0.843; in assay [1] (first compound 7.906 µM) it was 0.685; in assay [1] (first compound 25 µM), 0.688; in assay [2] (first compound 0.25 µM), 0.979. Besides, the relative viability in assay [2] (first compound 0.7906 µM) came out at 0.862; in assay [2] (first compound 2.5 µM), 0.989; in assay [2] (first compound 7.906 µM) it was 1.08; in assay [2] (first compound 25 µM) it was 1.1; in assay [3] (first compound 0.25 µM), 0.429; in assay [3] (first compound 0.7906 µM) it was 0.514. For the same cell line, the relative viability in assay [3] (first compound 2.5 µM) came to 0.485; in assay [3] (first compound 7.906 µM), 0.49; in assay [3] (first compound 25 µM), 0.42; in assay [4] (first compound 0.25 µM), 0.974; in assay [4] (first compound 0.7906 µM) it was 0.915; in assay [4] (first compound 2.5 µM) it was 0.932. The relative viability was 0.892 in assay [4] (first compound 7.906 µM) and 0.901 in assay [4] (first compound 25 µM).
As to SK-LU-1, the relative viability was determined as 0.209 in assay [1] (first compound 0.25 µM); 0.163 in assay [1] (first compound 0.7906 µM); 0.161 in assay [1] (first compound 2.5 µM); 0.209 in assay [1] (first compound 7.906 µM); 0.224 in assay [1] (first compound 25 µM); 1.05 in assay [2] (first compound 0.25 µM). The relative viability came out at 0.909 in assay [2] (first compound 0.7906 µM); 0.793 in assay [2] (first compound 2.5 µM); 0.772 in assay [2] (first compound 7.906 µM); 0.498 in assay [2] (first compound 25 µM); 0.983 in assay [3] (first compound 0.25 µM); 0.992 in assay [3] (first compound 0.7906 µM). Besides, the relative viability in assay [3] (first compound 2.5 µM) worked out at 0.931; in assay [3] (first compound 7.906 µM), 0.855; in assay [3] (first compound 25 µM) it was 0.823; in assay [4] (first compound 0.25 µM), 0.801; in assay [4] (first compound 0.7906 µM), 0.924; in assay [4] (first compound 2.5 µM) it was 0.863. Moreover, the relative viability in assay [4] (first compound 7.906 µM) was 0.728; in assay [4] (first compound 25 µM), 0.731.
SK-MES-1: the relative viability in assay [1] (first compound 0.25 µM) worked out at 0.368; in assay [1] (first compound 0.7906 µM) it was 0.341; in assay [1] (first compound 2.5 µM), 0.446; in assay [1] (first compound 7.906 µM), 0.475; in assay [1] (first compound 25 µM) it was 0.389; in assay [2] (first compound 0.25 µM), 1.2. Moreover, the relative viability is 1.34 in assay [2] (first compound 0.7906 µM); 1.23 in assay [2] (first compound 2.5 µM); 1.19 in assay [2] (first compound 7.906 µM); 1.4 in assay [2] (first compound 25 µM); 0.993 in assay [3] (first compound 0.25 µM); 1.09 in assay [3] (first compound 0.7906 µM). In addition, the relative viability in assay [3] (first compound 2.5 µM) stood at 0.998; in assay [3] (first compound 7.906 µM), 1.08; in assay [3] (first compound 25 µM), 1.01; in assay [4] (first compound 0.25 µM), 0.859; in assay [4] (first compound 0.7906 µM) it was 1.07; in assay [4] (first compound 2.5 µM), 0.914. Further, the relative viability in assay [4] (first compound 7.906 µM) is 0.945; in assay [4] (first compound 25 µM), 1.31.
Consider SW 1573, for which the relative viability in assay [1] (first compound 0.25 µM) came to 0.466; in assay [1] (first compound 0.7906 µM), 0.506; in assay [1] (first compound 2.5 µM) it was 0.605; in assay [1] (first compound 7.906 µM), 0.361; in assay [1] (first compound 25 µM) it was 0.295; in assay [2] (first compound 0.25 µM) it was 0.989. Moreover, the relative viability in assay [2] (first compound 0.7906 µM) amounted to 0.98; in assay [2] (first compound 2.5 µM), 0.825; in assay [2] (first compound 7.906 µM), 0.88; in assay [2] (first compound 25 µM) it was 0.608; in assay [3] (first compound 0.25 µM), 0.742; in assay [3] (first compound 0.7906 µM), 0.84. Also, the relative viability was found to be 0.818 in assay [3] (first compound 2.5 µM); 0.715 in assay [3] (first compound 7.906 µM); 0.642 in assay [3] (first compound 25 µM); 0.82 in assay [4] (first compound 0.25 µM); 0.822 in assay [4] (first compound 0.7906 µM); 0.892 in assay [4] (first compound 2.5 µM). Further, the relative viability in assay [4] (first compound 7.906 µM) turned out to be 0.76; in assay [4] (first compound 25 µM) it was 0.981.
